“And” between values parts separate entries of the source, which are not always exact repeats. Equal entries are not always repeated.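 Following 48 hours of exposure in 96-well plates, responses at five concentrations were used to interpolate endpoints linearly. GI50 marks 50% less growth. TGI denotes the concentration required for complete inhibition of growth.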

From PubChem BioAssay (NCI) come the findings set out here.

Assay in all cases: growth of human tumour cells (NCI), 48 h
Test [1] relates to HCC-2998 colon.
The subject of test [2] is MDA-MB-435.
In test [3] the test system is SK-OV-3 ovarian.
Test [4] deals with SN12C renal.
Test [5] deals with SF-268 CNS.
The subject of test [6] is NCI-H23 lung.
In test [7] the test system is MDA-MB-231 breast.
The subject of test [8] is HOP-92 NSCLC.
The test system of test [9] is SW-620 colon.
Test [10] concerns DU-145 prostate.

As to `N#Cc1ccccc1NC(=O)/C(=N\NC(=O)c1ccncc1)C(c1cnc2ccc([N+](=O)[O-])cc2n1)[N+](=O)[O-]` (configuration not stated), the TGI in [1], in test [2], in [3], in [4], in [5] and in test [6] was over 100 µM in each case. The TGI in [7], in [8] and in [9] was over 100 µM in each case.

For `Nc1ccccc1/C=C\c1ccccc1`, the TGI in test [2], in test [3], in test [4], in test [5], in test [6] and in [8] was over 100 µM throughout. In addition, the TGI in test [10] and in test [9] was over 100 µM in each case.

In the case of `S=c1[nH]c(=S)c2sc(=S)n(-c3ccccc3)c2[nH]1`, the TGI in test [1], in test [3], in test [4], in test [5], in [6] and in test [8] was over 100 µM each time. This molecule gave a TGI in [9] of over 100 µM.

With `C[C@@H]1O[C@@H](O[C@@H]2[C@@H](O)[C@H](OCCc3ccc(O)c(O)c3)O[C@H](COC(=O)/C=C/c3ccc(O)c(O)c3)[C@H]2O)[C@H](O)[C@H](O)[C@H]1O`, the GI50 in test [2] was 19.9 µM; in test [3], over 100 µM; in [4], 68.7 µM; in test [7] it was over 100 µM; in [10], 32.6 µM; in test [9], 18.7 µM. In addition, the TGI in test [2] was 40.1 µM; in [3] it was over 100 µM; in [4], over 100 µM; in [7], over 100 µM; in [10], over 100 µM; in test [9], 37.9 µM.

As for `c1nc2cscc2c2cscc12`, the TGI in [1], in test [3], in test [4], in [5], in test [6] and in test [8] was over 100 µM throughout. In [9], this molecule displayed a TGI of over 100 µM.

For the molecule `CCOc1cc2c(cnc3c4cc(OC)c(OC)cc4ccc23)cc1OC`, the TGI in [1], in test [3], in test [4], in [5], in [6] and in test [9] was over 100 µM each time.

For the molecule `COC(=O)NC/C=C\c1nc(CC/C=C\C(=O)OC2CC3CC(=O)O[C@H](/C=C/CC(C)C)C[C@H]4CCC(C)C(C[C@H](OC)CC(C2)O3)O4)co1` (some centres not stated), the GI50 in [3] was 63.9 µM; in test [4], under 0.01 µM; in test [5] it was under 0.01 µM; in test [7], 11.3 µM; in test [10], 1.54 µM; in test [9], under 0.01 µM. Further, the TGI in [3] is over 100 µM; in [4], 28.8 µM; in [5], 24.3 µM; in test [7], over 100 µM; in test [10], over 100 µM; in [9] it was over 100 µM.

`N#CCc1ccc(C(C#N)/C(CCCC(=O)Nc2cccc([N+](=O)[O-])c2)=N\NC(=O)NN)cc1` (configuration not stated): the TGI in test [1], in test [3], in [4], in test [5], in test [6] and in test [8] was over 100 µM in each case. The TGI in test [9] is over 100 µM.

Regarding `NCCCN(CCCN)CCCNCc1c2ccccc2c(CNCCCN(CCCN)CCCN)c2ccccc12`, the TGI in [1] came to 20.1 µM; in test [4], 34.2 µM; in test [5] it was 57.7 µM; in test [6], 85.6 µM; in test [8], 89.1 µM; in test [9], 32.5 µM.

As to `O=C(O)c1c2c(c(C(=O)O)c3ccccc13)-c1ccccc1-2`, the TGI in test [1] is over 100 µM; in test [3], 94.8 µM; in test [4] it was over 100 µM; in test [5], over 100 µM; in [6] it was over 100 µM; in test [8], 71.9 µM. The TGI in [9] is over 100 µM.

As for `CN(C)NC1=NS(=O)(=O)c2cc3c(cc2S1)N(N(C)C)C(=O)c1cc2c(cc1N(N(C)C)C3=O)SC(NN(C)C)=NS2(=O)=O`, the TGI in [1], in [3], in test [4], in test [5], in [6] and in [8] was over 10 µM throughout. Further, the TGI in [10] and in test [9] was over 10 µM in each case.

In the case of `CC(=O)OCSc1ncnc2c1ncn2CN1CCOCC1`, the TGI was over 100 µM in test [1]; over 100 µM in test [3]; over 100 µM in test [4]; over 100 µM in test [5]; 53.2 µM in test [6]; over 100 µM in test [8]. Besides, the TGI in test [9] was over 100 µM.

On to `Fc1ccc(Oc2nccc(-c3c(-c4ccc(F)cc4)ncn3C3CCNCC3)n2)cc1`, for which the GI50 in test [1] was over 25 µM; in test [2], over 25 µM; in test [3], over 23.9 µM; in test [4], over 19.6 µM; in test [5], over 25 µM; in [10], over 25 µM. For the same molecule, the GI50 in test [9] is over 25 µM. In addition, the TGI in test [1] is over 25 µM; in [2] it was over 25 µM; in [3] it was over 25 µM; in test [4], over 25 µM; in test [5] it was over 25 µM; in [7] it was over 9.34 µM. For the same molecule, the TGI in test [10] and in test [9] was over 25 µM each time.

Regarding `CC(C)=CC(=O)Oc1ccc([N+](=O)[O-])cc1`, the TGI in [1], in test [3], in test [4], in test [5], in test [6] and in test [8] was over 100 µM each time. Also, in test [9], the TGI was over 100 µM.

As for `Cc1cccc(C)c1NC(=O)CCCC(=O)CC(=O)/C=C/c1ccccc1`, the TGI in test [3], in test [4], in test [5], in [6], in [8] and in [9] was over 100 µM throughout.

Take `C1CNCCNCCNCCN1`: the TGI in [1], in test [3], in [4], in test [6] and in [9] was over 100 µM each time.

For `COc1ccc(C2S/C(=C\c3cc(OC)c(OC)c(OC)c3)C(=O)N2NC(=O)Cc2ccccc2)cc1` (configuration not stated), the TGI in [3], in [4], in test [5], in test [6], in test [8] and in [9] was over 100 µM in each case.

On to `FC(F)(F)c1cccc(COCCN2CCN(Cc3cccc(C(F)(F)F)c3)CC2)c1`, for which the TGI was 32.7 µM in [1]; 31.1 µM in test [3]; 33 µM in test [4]; 30.3 µM in [5]; 41.1 µM in test [6]; 44.7 µM in test [7]. Moreover, the figures for the TGI in test [10] and in test [9] were 32.4 µM and 28.3 µM, respectively.

Consider `CC(=O)NC1=C(Nc2ccc(C)cc2)C(=O)c2ccccc2C1=O`, for which the TGI in test [1] was over 75 µM; in test [3] it was over 75 µM; in test [4] it was 44 µM; in test [5], over 75 µM; in test [6] it was 19.6 µM; in test [9] it was 27.7 µM.

Regarding `Clc1ccc(-n2nnc(C3=NCCCN3)c2-c2ccccc2)cc1`, the TGI in test [1], in test [3], in [4], in [5], in test [6] and in test [8] was over 100 µM each time. Also, the TGI in [9] was over 100 µM.

Turning to `COc1cc2c(c(OC)c1OC)-c1ccc(SC)c(=O)cc1[C@@H](NC(=O)c1ccc(OC(C)=O)cc1)CC2`, the TGI was 0.0549 µM in test [1]; 0.0683 µM and 0.0201 µM in test [3]; 18.8 µM in test [4]; 24.8 µM in [5]; 0.049 µM in [6]; 0.0311 µM in test [8]. Besides, the TGI in [9] is 31 µM.

For the molecule `CN(C)CC(/C(Cc1ccccc1)=N\NC(=O)c1ccncc1)c1ccccc1` (configuration not stated), the TGI in test [1], in test [3], in test [4], in [5], in test [6] and in test [8] was over 100 µM each time. For the same molecule, the TGI in test [9] was over 100 µM.

As to `Cc1cc(O)c(C(=O)CC2(O)C(=O)Nc3c(Cl)cc(Cl)cc32)c(=O)o1` (configuration not stated), the TGI in [1], in test [3], in test [4], in test [5], in test [6] and in test [8] was over 100 µM throughout. This molecule also yielded a TGI in [9] of over 100 µM.

Consider `COc1ccc2nc(-c3ccccc3)cc(Nc3ccc(C(C)=O)cc3)c2c1`, for which the GI50 in [1] was 2.45 µM; in test [3], 16.1 µM; in [4] it was 1.87 µM; in [5], 7.51 µM; in [6], 3.51 µM; in [7] it was 0.0369 µM. The values for the GI50 in [10] and in test [9] were 14.1 µM and 5.08 µM, respectively. The TGI came out at 5.27 µM in test [1]; 36.9 µM in [3]; 4.66 µM in [4]; 31 µM in test [5]; 11.9 µM in [6]; 2.13 µM in test [7]. Further, the TGI stood at 27.1 µM in [10] and 18.5 µM in test [9].

Take `CC(=O)OCC1OC(OC2CC3C(C)(C)C(OC(C)=O)CC[C@]3(C)C3CCC45CC4(CC[C@H]5C(C)CC(O)[C@@H](O)C(C)(C)O)[C@]23C)C(O)C(O)C1O` (some centres not stated): the TGI was 12.9 µM in [1]; 11.6 µM and 24.8 µM in test [3]; 13.2 µM and 19.1 µM in test [4]; 14.6 µM and 28.8 µM in test [5]; 14.9 µM and 26.3 µM in test [6]; 13.1 µM and 11.7 µM in test [8]. Moreover, the TGI in test [9] is 14 µM and 13.7 µM. The GI50 is 12.4 µM in [3]; 15.4 µM in test [5]; 13.5 µM in test [6]; 4.05 µM in test [8]; 3.54 µM in test [9].

Take `Cn1nc(-c2ccccc2)c(N=[N+]=[N-])cc1=O`: the TGI in [1], in [3], in test [4], in test [5], in test [6] and in [9] was over 100 µM in each case.

On to `COC1/C(=C\C(=O)OC(C)(C)C)c2ccccc2N1C(C)=O` (configuration not stated), for which the TGI in test [1], in [3], in test [4], in test [6] and in test [9] was over 100 µM throughout.

With `O=C(CNC(=O)OCc1ccccc1)Oc1ccccc1`, the TGI in test [1], in test [3], in [4], in [5], in test [6] and in test [8] was over 100 µM each time. Further, the TGI in [9] was over 100 µM.

As to `COc1ccc(C(=O)C(c2ccc(OC)cc2)C2(O)C(=O)Nc3c(C)cc(Cl)cc32)cc1` (configuration not stated), the TGI in test [1], in [3], in test [4], in [5], in [6] and in test [8] was over 100 µM throughout. Moreover, in test [9], the TGI was over 100 µM.

As to `CC1(CO)OC1COCc1ccccc1` (configuration not stated), the TGI in [3], in [4], in test [5], in test [6], in test [8] and in [9] was over 100 µM throughout.

Consider `COC(=O)/C=C(C)/C=C/c1cc(C(C)=O)c(C)o1`, for which the TGI in test [1], in test [3], in [5], in test [6], in test [8] and in test [9] was over 100 µM throughout.
